# Data from publication PMC13128454, “Mutant p53 protein accumulation is selectively targetable by proximity-inducing drugs” (Nature Chemical Biology, 2025).
# Values joined by “and” are separate entries in the source; they are usually repeats but may differ in a detail not shown here. Equal entries are not always repeated.
# Legend:
# [1] = test system: cancer cell lines across DepMap; set-up: method as in DepMap; settings: antiproliferative; GDSC1; ref DepMap; read-out: median IC50 across DepMap; cited from earlier work
# [2] = test system: Calu-1 cells stably expressing Halo–p53 WT (FL)–mCherry–2A–mTagBFP2-V5; assay: CellTiter-Glo cell viability; type: cell-based; settings: for mean_norm: Cell_Type WT; for replicates (raw CTG signal): p53_construct WT, CTG 4 days
# Description: (§1) Cells were plated in 384-well plates (typically 1,500 cells per well) with varying concentrations of compounds, with a total volume of 50 μl per well. CTG reagent was added (25 μl) to the solutions, mixed and read out using an EnVision 2105 multimode plate reader.
# [3] = test system: Calu-1 cells stably expressing Halo–p53-Y220C (FL)–mCherry–2A–mTagBFP2-V5; assay: CellTiter-Glo cell viability; type: cell-based; settings: Cell_Type Y220C
# Description: as §1
# BxPC-3 cells = assay: CellTiter-Glo cell viability; type: cell-based; settings: BXPC3; for mean_norm (normalized viability): 4 day
# Description: as §1
# [4] = test system: p53 transcriptional targets in Huh7 cells (TP53^Y220C/Y220C); assay: Huh7 RNA-seq and GSEA; type: cell-based; settings: 4 μM, 24 h, versus DMSO
# Description: Huh7 cells were passaged into six-well plates and treated with PMV6 (4 μM), p53-01 (4 μM) or DMSO for 24 h. Cells were washed once with cold PBS. Subsequently, TRIzol (Invitrogen) was added to cells and, following the manufacturer’s protocol, RNA was extracted. RNA concentration was monitored using a Qubit fluorometer (Thermo Fisher) and RNA integrity was analyzed using an Agilent Bioanalyzer. The NEBNext Ultra II RNA library prep kit (Illumina) was used to prepare an RNA-seq library. A NovaSeq 6000 machine (Illumina) was used for paired-end 150-bp RNA-seq. STAR/RSEM[68],[71] was used to align RNA-seq reads to the GENCODE v38 transcript ref.[72] and generate a count matrix. Raw counts were rounded and DESeq2 was used for downstream analysis. A preranked GSEA[74] was performed using the DESeq2 t statistic (versus DMSO-treated cells) as a rank metric using the Fischer p53 targets geneset.
compound,measurement,setting,value
CC[C@@H]1C(=O)N(C)c2cnc(Nc3ccc(C(=O)NC4CCN(C)CC4)cc3OC)nc2N1C1CCCC1 [BI2536],IC50,[1],0.0118 µM
same,mean_norm,[2]; Concentration 0.00976562,0.9965
same,mean_norm,[2]; Concentration 0.0195312,0.9819
same,mean_norm,[2]; Concentration 0.0390625,0.9464
same,mean_norm,[2]; Concentration 0.078125,0.9231
same,mean_norm,[2]; Concentration 0.15625,0.8923
same,mean_norm,[2]; Concentration 0.3125,0.9222
same,mean_norm,[2]; Concentration 0.625,0.8706
same,mean_norm,[2]; Concentration 1.25,0.9152
same,mean_norm,[2]; Concentration 2.5,0.732
same,mean_norm,[2]; Concentration 5,0.654
same,replicates (raw CTG signal),[2]; Compound_conc 0.0488281,244635 and 211925 and 234768 and 234225
same,replicates (raw CTG signal),[2]; Compound_conc 0.0976562,273323 and 237458 and 247150 and 303994
same,replicates (raw CTG signal),[2]; Compound_conc 0.195312,238397 and 225982 and 259666 and 218737
same,replicates (raw CTG signal),[2]; Compound_conc 0.390625,236109 and 227126 and 240832 and 277749
same,replicates (raw CTG signal),[2]; Compound_conc 0.78125,245303 and 237908 and 252002 and 245374
same,replicates (raw CTG signal),[2]; Compound_conc 1.5625,272283 and 224772 and 244085 and 261410
same,replicates (raw CTG signal),[2]; Compound_conc 3.125,243376 and 233836 and 240215 and 246677
same,replicates (raw CTG signal),[2]; Compound_conc 6.25,186650 and 172938 and 193716 and 217878
same,replicates (raw CTG signal),[2]; Compound_conc 12.5,153573 and 146180 and 148955 and 165621
same,replicates (raw CTG signal),[2]; Compound_conc 25,156770 and 147371 and 141939 and 149390
same,replicates (raw CTG signal),[2]; Compound_conc 50,121176 and 111722 and 112653 and 125709
same,replicates (raw CTG signal),[2]; Compound_conc 100,91299 and 91521 and 110253 and 107241
same,mean_norm,[3]; Concentration 0.00976562,1.033
same,mean_norm,[3]; Concentration 0.0195312,1.042
same,mean_norm,[3]; Concentration 0.0390625,1.012
same,mean_norm,[3]; Concentration 0.078125,1.001
same,mean_norm,[3]; Concentration 0.15625,1.013
same,mean_norm,[3]; Concentration 0.3125,0.9845
same,mean_norm,[3]; Concentration 0.625,0.8987
same,mean_norm,[3]; Concentration 1.25,0.7731
same,mean_norm,[3]; Concentration 2.5,0.741
same,mean_norm,[3]; Concentration 5,0.654
"CC[C@@H]1C(=O)N(C)c2cnc(Nc3ccc(C(=O)NCCOCCOCCOCCOCCC(=O)N4CCC(Nc5cccc6c5cc(C#CCNc5ccc(S(C)(=O)=O)cc5OC)n6CC(F)(F)F)CC4)cc3OC)nc2N1C1CCCC1 [p53-01, PMV6-PEG4-BI2536]",p5301_AUC_to_10uM,BxPC-3 cells,0.6983
same,mean_norm (normalized viability),BxPC-3 cells; Concentration 625,0.9363
same,mean_norm (normalized viability),BxPC-3 cells; Concentration 1250,0.9354
same,mean_norm (normalized viability),BxPC-3 cells; Concentration 2500,0.8133
same,mean_norm (normalized viability),BxPC-3 cells; Concentration 5000,0.7027
same,IC50,"BxPC-3 cells; Homo sapiens, BXPC-3, 96 h, 4 day treatment",8.25 µM
same,"normalized enrichment score (NES), Fischer p53 targets",[4],1.33
